Patent US20260297081A1, “COMPOUNDS AND METHODS OF TREATING CANCERS” (Cullgen Inc., priority 2023, published 2026)
pIC50: −log10 of the molar value.

Assays:
Assay type in all cases: cell-based
[1] = tested on: MCF7 cells; experiment: Anti-proliferation (viability) of MCF7 cells (Table 7, FIG. 2B); details: Homo sapiens, MCF7, MCF7 cells, 3-6 days, 10-point serial dilution; read-out: GI IC50 in MCF-7
[2] = molecular target: CDK4 (Homo sapiens, UniProt P11802+Q16531); experiment: CDK4 percentage degradation in Calu-1 cells (Table 6); design: Cells that express cyclin D1-3 and CDK4/6 proteins were treated with heterobifunctional compounds; endogenous in cells; host or cells: Calu-1; details: 16 hours; for inhibition at 0.04 µM: 40 nM; for inhibition at 0.2 µM: 200 nM
CDK4, sequence (P11802 2-303 limits assumed): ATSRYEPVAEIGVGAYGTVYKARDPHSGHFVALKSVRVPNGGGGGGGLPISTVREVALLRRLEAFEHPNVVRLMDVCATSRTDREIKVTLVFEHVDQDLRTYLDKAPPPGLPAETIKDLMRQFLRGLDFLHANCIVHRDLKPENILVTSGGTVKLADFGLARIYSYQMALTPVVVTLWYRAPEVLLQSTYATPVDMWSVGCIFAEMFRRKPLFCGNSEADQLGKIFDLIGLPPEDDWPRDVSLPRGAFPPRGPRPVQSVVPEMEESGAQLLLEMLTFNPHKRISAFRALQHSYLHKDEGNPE
CDK4, sequence (P24385 whole entry partner): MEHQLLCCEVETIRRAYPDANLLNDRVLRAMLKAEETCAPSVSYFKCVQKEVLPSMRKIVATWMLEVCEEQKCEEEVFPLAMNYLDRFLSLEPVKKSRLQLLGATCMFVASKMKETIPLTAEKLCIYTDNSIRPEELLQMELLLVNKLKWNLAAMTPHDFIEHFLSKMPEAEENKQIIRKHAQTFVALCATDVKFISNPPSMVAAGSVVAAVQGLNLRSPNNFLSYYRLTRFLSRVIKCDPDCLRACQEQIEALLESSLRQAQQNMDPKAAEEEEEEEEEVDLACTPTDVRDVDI
CDK4, sequence (Q16531 2-1140 limits assumed): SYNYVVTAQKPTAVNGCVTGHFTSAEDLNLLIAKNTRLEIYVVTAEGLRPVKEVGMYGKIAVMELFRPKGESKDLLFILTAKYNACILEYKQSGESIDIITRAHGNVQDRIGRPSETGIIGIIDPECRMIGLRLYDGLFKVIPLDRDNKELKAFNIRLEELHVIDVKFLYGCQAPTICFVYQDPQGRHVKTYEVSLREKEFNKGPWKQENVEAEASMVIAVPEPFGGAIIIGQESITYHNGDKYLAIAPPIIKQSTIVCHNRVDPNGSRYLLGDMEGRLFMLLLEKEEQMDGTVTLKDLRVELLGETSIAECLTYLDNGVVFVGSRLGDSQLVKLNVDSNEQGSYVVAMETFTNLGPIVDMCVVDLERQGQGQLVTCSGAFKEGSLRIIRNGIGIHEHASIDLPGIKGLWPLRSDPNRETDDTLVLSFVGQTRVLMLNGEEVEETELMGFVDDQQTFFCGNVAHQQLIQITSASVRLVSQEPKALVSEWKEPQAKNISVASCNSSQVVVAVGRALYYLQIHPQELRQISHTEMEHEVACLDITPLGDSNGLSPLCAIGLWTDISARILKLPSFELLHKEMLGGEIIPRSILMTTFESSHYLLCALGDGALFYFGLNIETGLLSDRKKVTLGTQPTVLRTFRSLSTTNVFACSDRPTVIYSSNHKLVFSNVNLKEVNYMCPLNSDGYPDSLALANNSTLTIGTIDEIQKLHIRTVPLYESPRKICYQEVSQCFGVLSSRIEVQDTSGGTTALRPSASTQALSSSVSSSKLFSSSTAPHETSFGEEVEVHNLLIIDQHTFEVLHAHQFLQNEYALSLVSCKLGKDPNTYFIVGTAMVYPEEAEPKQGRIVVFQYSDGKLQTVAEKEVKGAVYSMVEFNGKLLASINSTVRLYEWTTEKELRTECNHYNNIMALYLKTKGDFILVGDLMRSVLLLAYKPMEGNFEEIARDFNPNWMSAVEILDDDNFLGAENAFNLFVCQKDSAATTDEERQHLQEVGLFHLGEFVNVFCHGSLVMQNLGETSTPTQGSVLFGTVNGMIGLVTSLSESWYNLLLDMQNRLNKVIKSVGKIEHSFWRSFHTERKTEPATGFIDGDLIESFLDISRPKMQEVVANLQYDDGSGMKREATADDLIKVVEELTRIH
Method in brief: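 Percentage degradation of Cyclin D1 and CDK4 derived from densitometry of ECL Western blots on lysates of Calu-1 cells. Treatment was 16 h with compound at either 40 nM or 200 nM.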

[3] = tested on: Calu-1 cells; experiment: Anti-proliferation (viability) of NSCLC Calu-1 cells, 3 days (Table 7, FIG. 2B); details: Homo sapiens, 72 h; Calu-1 cells, 3 days, 10-point serial dilution; read-out: GI IC50 in Calu-1
Method in brief: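 Viability is read after treatment with compounds titrated over ten serial dilution points, with exposure lasting three days for the NSCLC line and six days for the breast cancer line.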

Compound | pIC50 [1] | inhibition at 0.04 µM [2] [%] | pIC50 [3] | inhibition at 0.2 µM [2] [%]
CNc1ccc(C(=O)Nc2nc(C)c(C)s2)c(NCCCCCCCNC(=O)CN2CCN(c3ccc(Nc4ncc5c(C)c(C(C)=O)c(=O)n(C6CCCC6)c5n4)nc3)CC2)n1 [CPD-4, 2-((7-(2-(4-(6-((6-acetyl-8-cyclopentyl-5-methyl-7-oxo-7,8-dihydropyrido[2,3-d]pyrimidin-2-yl)amino)pyridin-3-yl)piperazin-1-yl)acetamido)heptyl)amino)-N-(4,5-dimethylthiazol-2-yl)-6-(methylamino)nicotinamide] | 7.00 to 7.30 | 50 to 80 | 7.30 to 8.00 | 
CNc1ccc(C(=O)Nc2ccc(N(C)C)nn2)c(NCC2CCN(C(=O)CCN3CCN(c4ccc(Nc5ncc6c(C)c(C(C)=O)c(=O)n(C7CCCC7)c6n5)nc4)CC3)CC2)n1 [CPD-146, 2-(((1-(3-(4-(6-((6-acetyl-8-cyclopentyl-5-methyl-7-oxo-7,8-dihydropyrido[2,3-d]pyrimidin-2-yl)amino)pyridin-3-yl)piperazin-1-yl)propanoyl)piperidin-4-yl)methyl)amino)-N-(6-(dimethylamino)pyridazin-3-yl)-6-(methylamino)nicotinamide] | > 7.30 | 50 to 80 | ≥ 8.00 | > 80
CNc1ccc(C(=O)Nc2ccc(N(C)C)nn2)c(NC2CC(NC(=O)CCN3CCN(c4ccc(Nc5ncc6c(C)c(C(C)=O)c(=O)n(C7CCCC7)c6n5)nc4)CC3)C2)n1 (stereo not drawn) [CPD-150, 2-((3-(3-(4-(6-((6-acetyl-8-cyclopentyl-5-methyl-7-oxo-7,8-dihydropyrido[2,3-d]pyrimidin-2-yl)amino)pyridin-3-yl)piperazin-1-yl)propanamido)cyclobutyl)amino)-N-(6-(dimethylamino)pyridazin-3-yl)-6-(methylamino)nicotinamide] | 7.00 to 7.30 | 50 to 80 | ≥ 8.00 | > 80
CNc1ccc(C(=O)Nc2ccc(N(C)C)nn2)c(NC2CC(C(=O)NCCN3CCN(c4ccc(Nc5ncc6c(C)c(C(C)=O)c(=O)n(C7CCCC7)c6n5)nc4)CC3)C2)n1 (stereo not drawn) [CPD-157, 2-((3-((2-(4-(6-((6-acetyl-8-cyclopentyl-5-methyl-7-oxo-7,8-dihydropyrido[2,3-d]pyrimidin-2-yl)amino)pyridin-3-yl)piperazin-1-yl)ethyl)carbamoyl)cyclobutyl)amino)-N-(6-(dimethylamino)pyridazin-3-yl)-6-(methylamino)nicotinamide] | 7.00 to 7.30 | 50 to 80 | ≥ 8.00 | > 80
CNc1ccc(C(=O)Nc2ccc(N(C)C)nn2)c(NC2CCC3(C2)CN(C(=O)CCN2CCN(c4ccc(Nc5ncc6c(C)c(C(C)=O)c(=O)n(C7CCCC7)c6n5)nc4)CC2)C3)n1 (stereo not drawn) [CPD-158, 2-((2-(3-(4-(6-((6-acetyl-8-cyclopentyl-5-methyl-7-oxo-7,8-dihydropyrido[2,3-d]pyrimidin-2-yl)amino)pyridin-3-yl)piperazin-1-yl)propanoyl)-2-azaspiro[3.4]octan-6-yl)amino)-N-(6-(dimethylamino)pyridazin-3-yl)-6-(methylamino)nicotinamide] | > 7.30 | 50 to 80 | ≥ 8.00 | > 80
CC(C)Nc1ccc(C(=O)Nc2ccc(N(C)C)nn2)c(N[C@H]2CC[C@H](C(=O)N3CCC(N4CCN(c5ccc(Nc6ncc7cc(C(F)F)c(=O)n(C8CCCC8)c7n6)nc5)CC4)C3)CC2)n1 (stereo partly drawn) [CPD-559, 2-((trans-4-(3-(4-(6-((8-cyclopentyl-6-(difluoromethyl)-7-oxo-7,8-dihydropyrido[2,3-d]pyrimidin-2-yl)amino)pyridin-3-yl)piperazin-1-yl)pyrrolidine-1-carbonyl)cyclohexyl)amino)-N-(6-(dimethylamino)pyridazin-3-yl)-6-(isopropylamino)nicotinamide] | < 7.00 |  | 7.30 to 8.00 | 
CC(=O)c1cc2cnc(Nc3ccc(N4CCN(C5CCN(C(=O)[C@H]6CC[C@H](Nc7nc(NC(C)C)ccc7C(=O)Nc7ccc(N(C)C)nn7)CC6)C5)CC4)cn3)nc2n(C2CCCC2)c1=O (stereo partly drawn) [CPD-560, 2-((trans-4-(3-(4-(6-((6-acetyl-8-cyclopentyl-7-oxo-7,8-dihydropyrido[2,3-d]pyrimidin-2-yl)amino)pyridin-3-yl)piperazin-1-yl)pyrrolidine-1-carbonyl)cyclohexyl)amino)-N-(6-(dimethylamino)pyridazin-3-yl)-6-(isopropylamino)nicotinamide] | < 7.00 |  | ≥ 8.00 | 
CC(=O)c1c(C)c2cnc(Nc3ccc(N4CCN(C5CCN(C(=O)N6CCC7(CCC(Nc8nc(NC(C)C)ccc8C(=O)Nc8ccc(N(C)C)nn8)C7)C6)C5)CC4)cn3)nc2n(C2CCCC2)c1=O (stereo not drawn) [CPD-561, 2-((2-(3-(4-(6-((6-acetyl-8-cyclopentyl-5-methyl-7-oxo-7,8-dihydropyrido[2,3-d]pyrimidin-2-yl)amino)pyridin-3-yl)piperazin-1-yl)pyrrolidine-1-carbonyl)-2-azaspiro[4.4]nonan-7-yl)amino)-N-(6-(dimethylamino)pyridazin-3-yl)-6-(isopropylamino)nicotinamide] | < 7.00 |  | ≥ 8.00 | 
CC(=O)c1c(C)c2cnc(Nc3ccc(CN4CCN(CC(=O)N5CCC(Nc6nc(NC(C)C)ccc6C(=O)Nc6cn7c(n6)CCC7)CC5)CC4)cn3)nc2n(C2CCCC2)c1=O [CPD-564, 2-((1-(2-(4-((6-((6-acetyl-8-cyclopentyl-5-methyl-7-oxo-7,8-dihydropyrido[2,3-d]pyrimidin-2-yl)amino)pyridin-3-yl)methyl)piperazin-1-yl)acetyl)piperidin-4-yl)amino)-N-(6,7-dihydro-5H-pyrrolo[1,2-a]imidazol-2-yl)-6-(isopropylamino)nicotinamide] | < 7.00 |  | 7.30 to 8.00 | 
CC(=O)c1c(C)c2cnc(Nc3ccc(N4CCN(CC(=O)NC5CC6(C5)CC(Nc5nc(NC(C)C)ccc5C(=O)Nc5cn7c(n5)CCC7)C6)CC4)cn3)nc2n(C2CCCC2)c1=O (stereo not drawn) [CPD-566, 2-((6-(2-(4-(6-((6-acetyl-8-cyclopentyl-5-methyl-7-oxo-7,8-dihydropyrido[2,3-d]pyrimidin-2-yl)amino)pyridin-3-yl)piperazin-1-yl)acetamido)spiro[3.3]heptan-2-yl)amino)-N-(6,7-dihydro-5H-pyrrolo[1,2-a]imidazol-2-yl)-6-(isopropylamino)nicotinamide] | > 7.30 |  | ≥ 8.00 | 
[2H]C([2H])([2H])Nc1ccc(C(=O)Nc2cn3c(n2)CCC3)c(NC2CC3(C2)CN(C(=O)CC(N2CCN(c4ccc(Nc5ncc6c(C)c(C(C)=O)c(=O)n(C7CCCC7)c6n5)nc4)CC2)C(F)(F)F)C3)n1 (stereo not drawn) [CPD-567, 2-((2-(3-(4-(6-((6-acetyl-8-cyclopentyl-5-methyl-7-oxo-7,8-dihydropyrido[2,3-d]pyrimidin-2-yl)amino)pyridin-3-yl)piperazin-1-yl)-4,4,4-trifluorobutanoyl)-2-azaspiro[3.3]heptan-6-yl)amino)-N-(6,7-dihydro-5H-pyrrolo[1,2-a]imidazol-2-yl)-6-((methyl-d3)amino)nicotinamide] | 7.00 to 7.30 |  | ≥ 8.00 | 
CC(=O)c1c(C)c2cnc(Nc3ccc(N4CCN(C5CCN(C(=O)[C@H]6CC[C@H](Nc7nc(NC(C)C)ccc7C(=O)Nc7cn8c(n7)CCC8)CC6)C5)CC4)cn3)nc2n(C2CCCC2)c1=O (stereo partly drawn) [CPD-568, 2-((trans-4-(3-(4-(6-((6-acetyl-8-cyclopentyl-5-methyl-7-oxo-7,8-dihydropyrido[2,3-d]pyrimidin-2-yl)amino)pyridin-3-yl)piperazin-1-yl)pyrrolidine-1-carbonyl)cyclohexyl)amino)-N-(6,7-dihydro-5H-pyrrolo[1,2-a]imidazol-2-yl)-6-(isopropylamino)nicotinamide] | < 7.00 |  | ≥ 8.00 | 
[2H]C([2H])([2H])Nc1ccc(C(=O)Nc2cn3c(n2)CCC3)c(N[C@H]2CC[C@H](C(=O)N3CCC(N4CCN(c5ccc(Nc6ncc7c(C)c(C(C)=O)c(=O)n(C8CCCC8)c7n6)nc5)CC4)C3)CC2)n1 (stereo partly drawn) [CPD-569, 2-((trans-4-(3-(4-(6-((6-acetyl-8-cyclopentyl-5-methyl-7-oxo-7,8-dihydropyrido[2,3-d]pyrimidin-2-yl)amino)pyridin-3-yl)piperazin-1-yl)pyrrolidine-1-carbonyl)cyclohexyl)amino)-N-(6,7-dihydro-5H-pyrrolo[1,2-a]imidazol-2-yl)-6-((methyl-d3)amino)nicotinamide] | < 7.00 |  | ≤ 7.30 | 
CC(=O)c1c(C)c2cnc(Nc3ccc(N4CCN(C5CCN(C(=O)[C@H]6CC[C@H](Nc7nc(C(F)(F)F)ccc7C(=O)Nc7ccc(N(C)C)nn7)CC6)C5)CC4)cn3)nc2n(C2CCCC2)c1=O (stereo partly drawn) [CPD-571, 2-((trans-4-(3-(4-(6-((6-acetyl-8-cyclopentyl-5-methyl-7-oxo-7,8-dihydropyrido[2,3-d]pyrimidin-2-yl)amino)pyridin-3-yl)piperazin-1-yl)pyrrolidine-1-carbonyl)cyclohexyl)amino)-N-(6-(dimethylamino)pyridazin-3-yl)-6-(trifluoromethyl)nicotinamide] | > 7.30 |  | ≥ 8.00 | 
CC(=O)c1c(C)c2cnc(Nc3ccc(N4CCN(C5CCN(C(=O)C6(F)CCC(Nc7nc(NC(C)C)ccc7C(=O)Nc7ccc(N(C)C)nn7)CC6)C5)CC4)cn3)nc2n(C2CCCC2)c1=O (stereo not drawn) [CPD-572, 2-((4-(3-(4-(6-((6-acetyl-8-cyclopentyl-5-methyl-7-oxo-7,8-dihydropyrido[2,3-d]pyrimidin-2-yl)amino)pyridin-3-yl)piperazin-1-yl)pyrrolidine-1-carbonyl)-4-fluorocyclohexyl)amino)-N-(6-(dimethylamino)pyridazin-3-yl)-6-(isopropylamino)nicotinamide] | 7.00 to 7.30 |  | ≥ 8.00 | 
